{
  "source": "ChEMBL document CHEMBL4038348",
  "about": "(J Med Chem, 2017)",
  "test": "physchem",
  "settings": "octanol/water, pH 7.4",
  "description": "1-octanol/aqueous buffer solution partition coefficient, log D of the compound at pH 7.4 by UV-HPLC method",
  "data": [
    {"smiles": "COCC(NC(=O)N1CC(=O)Nc2cc(OC)cnc21)c1ccc(C(F)(F)F)cc1", "note": "(stereo in doubt; 34)", "values": [
      {"measurement": "logD", "value": 3.03}
    ]},
    {"smiles": "CCC(NC(=O)N1CC(=O)Nc2cccnc21)c1ccc(N2CCC2)cc1", "note": "(configuration not stated)", "values": [
      {"measurement": "logD", "value": 3.13}
    ]}
  ]
}
